The text below walks through data of US9370570B2, “Polychlorinated biphenyls and squalene-containing adjuvants” (priority 2007, dated 2016).

The structures appear in SMILES notation.

A short description of the first data set: levels of seven dioxins and ten furans in squalene samples, as TEQs. Particulars: WHO 2005 TEFs; + = 1,2,3,4,6,7,8-HpCDD. As to the method: In addition to measuring PCB content, levels of seven dioxins and ten furans were measured. […] TEQs from PCBs, dioxins and furans for these samples were as follows, measured in pg/g according to WHO 2005 TEFs: […]
Turning to `CC(C)=CCCC(C)=CCCC(C)=CCCC=C(C)CCC=C(C)CCC=C(C)C` [squalene, 2,6,10,15,19,23-hexamethyl-2,6,10,14,18,22-tetracosahexaene], the “TEQ from Dioxins” value is recorded as 28.158 ^+ pg/g.

Assay in the next data set: not given
Particulars: WHO 2005 TEF values for PCBs in humans; fraction of the toxicity of 2,3,7,8-TCDD dioxin (reference value 1); cited from earlier work.
`Clc1ccc(-c2cc(Cl)c(Cl)c(Cl)c2Cl)cc1Cl` [PCB #156]: the “TEF (toxic equivalency factor)” value is listed as 0.00003.

On to `Clc1ccc(-c2cc(Cl)c(Cl)c(Cl)c2)c(Cl)c1` [PCB #123], for which the “TEF (toxic equivalency factor)” value is recorded as 0.00003.

As for `Clc1ccc(-c2cc(Cl)c(Cl)c(Cl)c2)cc1Cl` [PCB #126, 3,3′,4,4′,5-pentachlorobiphenyl], the “TEF (toxic equivalency factor)” value is 0.1.

`Clc1cc(-c2ccc(Cl)c(Cl)c2Cl)cc(Cl)c1Cl` [PCB #157]: the “TEF (toxic equivalency factor)” value is 0.00003.

On to `Clc1ccc(-c2cc(Cl)c(Cl)cc2Cl)cc1Cl` [PCB #118], for which the “TEF (toxic equivalency factor)” value is listed as 0.00003.

For `Clc1cc(-c2cc(Cl)c(Cl)c(Cl)c2)cc(Cl)c1Cl` [PCB #169, 3′,4,4′,5,5′-hexachlorobiphenyl], the “TEF (toxic equivalency factor)” value is on record as 0.03.

`Clc1cc(-c2cc(Cl)c(Cl)c(Cl)c2Cl)cc(Cl)c1Cl` [PCB #189]: the “TEF (toxic equivalency factor)” value was 0.00003.

As for `Clc1ccc(-c2ccc(Cl)c(Cl)c2)cc1Cl` [PCB #77, 3,3′,4,4′-tetrachlorobiphenyl], the “TEF (toxic equivalency factor)” value is on record as 0.0001.

Take `Clc1ccc(-c2ccc(Cl)c(Cl)c2Cl)cc1Cl` [PCB #105]: the “TEF (toxic equivalency factor)” value is reported as 0.00003.

Take `Clc1ccc(-c2cc(Cl)c(Cl)c(Cl)c2)cc1` [PCB #81, 3,4,4′,5-tetrachlorobiphenyl]: the “TEF (toxic equivalency factor)” value is recorded as 0.0003.

For `Clc1cc(Cl)c(-c2cc(Cl)c(Cl)c(Cl)c2)cc1Cl` [PCB #167], the “TEF (toxic equivalency factor)” value is on record as 0.00003.

In the case of `Clc1cc2c(cc1Cl)Oc1cc(Cl)c(Cl)cc1O2` [2,3,7,8-TCDD, reference compound], the “TEF (toxic equivalency factor)” value is reported as 1.

Turning to `Clc1ccc(-c2cc(Cl)c(Cl)c(Cl)c2Cl)cc1` [PCB #114], the “TEF (toxic equivalency factor)” value was 0.00003.

Consider `Clc1cc(Cl)c(-c2cc(Cl)c(Cl)c(Cl)c2Cl)cc1Cl` [PCB #180], for which the “TEF (toxic equivalency factor)” value was 0.00001.
